Results published in ChEMBL document CHEMBL3244037, “6-Aryl-4H-s-triazolo[4,3-a][1,4]benzodiazepines. Influence of 1-substitution on pharmacological activity” (J Med Chem, 1979).

Key:
Mus musculus [1] = experiment: Inhibition of oxotremorine-induced hypothermia in ip dosed albino CF1 mouse; assay type: functional
Mus musculus [2] = experiment: Inhibition of apomorphine-induced cage climbing in ip dosed albino CF1 mouse compound administered prior to challenge measured for 5 mins after 5 mins of challenge; assay type: functional
Mus musculus [3] = experiment: […] activity in ip dosed albino CF1 mouse assessed as potentiation of gamma-butyrolactone-induced sleep; assay type: functional
Mus musculus [4] = experiment: Potentiation of apomorphine-induced gnawing in ip dosed albino CF1 mouse; assay type: organism-based
Mus musculus [5] = experiment: Potentiation of yohimbine toxicity in ip dosed aggregated albino CF1 mouse; assay type: organism-based
Mus musculus [6] = experiment: Anticonvulsant activity in ip dosed albino CF1 mouse assessed as protection against pentylenetetrazole-induced clonic convulsions; assay type: functional
Mus musculus [7] = experiment: Reduction of hypoxic stress in ip dosed albino CF1 mouse assessed as prolongation of hypoxic survival time; assay type: functional
Mus musculus [8] = experiment: Anticonvulsant activity in ip dosed albino CF1 mouse assessed as inhibition of bicucullin-induced tonic extensor convulsions; assay type: functional
Mus musculus [9] = experiment: Hypothermic activity in ip dosed albino CF1 mouse assessed as effect on body temperature measured after 45 mins; assay type: functional; conditions: 0.75 h
Mus musculus [10] = experiment: Inhibition of amphetamine aggregation toxicity in ip dosed albino CF1 mouse compound administered 1 hr prior to challenge measured after 2 hrs; assay type: functional

Row | Structure (SMILES) | ED50 (Mus musculus [1]) [mg/kg] | ED50 (Mus musculus [2]) [mg/kg] | ED50 (Mus musculus [3]) [mg/kg] | ED50 (Mus musculus [4]) [mg/kg] | ED50 (Mus musculus [5]) [mg/kg] | ED50 (Mus musculus [6]) [mg/kg] | ED50 (Mus musculus [7]) [mg/kg] | ED50 (Mus musculus [8]) [mg/kg] | ED50 (Mus musculus [9]) [mg/kg] | ED50 (Mus musculus [10]) [mg/kg]
1 | Clc1ccc2c(c1)C(c1ccccc1)=NCc1nnc(Br)n1-2 | > 50 | > 50 | 2 | > 50 | > 50 | 2.3 | 6 | 3 | > 50 | > 50
2 | Clc1ccc2c(c1)C(c1ccccc1)=NCc1nnc(N3CCOCC3)n1-2 | 35.4 | 40 | 4.4 | 35.4 | > 50 | 2.6 | > 50 | 3.1 | 7 | > 50
3 | CN(C)c1nnc2n1-c1ccc(Cl)cc1C(c1ccccc1)=NC2 | 21 | > 50 | 0.3 | > 50 | > 50 | 0.9 | 9 | 1.1 | > 50 | > 50
4 | N#Cc1nnc2n1-c1ccc(Cl)cc1C(c1ccccc1)=NC2 | > 50 | > 50 | 4 | > 50 | > 50 | – | > 50 | 3 | 10 | > 50
5 | COc1nnc2n1-c1ccc(Cl)cc1C(c1ccccc1)=NC2 | > 50 | > 50 | 0.1 | > 50 | > 50 | 0.14 | > 50 | 0.5 | 10 | > 50
6 | Sc1nnc2n1-c1ccc(Cl)cc1C(c1ccccc1)=NC2 | > 50 | > 50 | 0.8 | > 50 | > 50 | 2.3 | 9 | 3 | 9 | > 50
7 | COCc1nnc2n1-c1ccc(Cl)cc1C(c1ccccc1)=NC2 | > 50 | > 50 | 2 | > 50 | > 50 | 2 | 20 | 0.6 | 30 | > 50
8 | OCc1nnc2n1-c1ccc(Cl)cc1C(c1ccccc1)=NC2 | 20 | > 50 | 0.1 | > 50 | > 50 | 0.1 | 0.9 | 0.2 | > 50 | > 50
9 | N#CCc1nnc2n1-c1ccc(Cl)cc1C(c1ccccc1)=NC2 | > 50 | 40 | 0.07 | > 50 | > 50 | 0.63 | 2 | 0.2 | > 50 | > 50
10 | CC1N=C(c2ccccc2)c2cc(Cl)ccc2-n2c1nnc2N1CCN(C)CC1 (centres undefined) | 4.4 | 50 | 0.7 | > 50 | 8.8 | 3.1 | 4.4 | 2.6 | 29.7 | > 50
11 | CC1N=C(c2ccccc2)c2cc(Cl)ccc2-n2c1nnc2N1CCOCC1 (centres undefined) | 10 | > 50 | 0.7 | > 50 | 20 | 0.4 | 3 | 3 | > 50 | > 50
12 | CC1=NC(c2ccccc2)c2cc(Cl)ccc2-n2c1nnc2N1CCN(C)CC1 (centres undefined) | 40 | > 50 | > 50 | > 50 | > 50 | > 50 | – | > 50 | > 50 | > 50
13 | CC1=NC(c2ccccc2)c2cc(Cl)ccc2-n2c1nnc2N1CCOCC1 (centres undefined) | > 50 | > 50 | > 50 | > 50 | > 50 | > 50 | – | > 50 | > 50 | > 50
14 | Cc1nnc2n1-c1ccc(N)cc1C(c1ccccc1Cl)=NC2 | > 50 | > 50 | 0.7 | > 50 | > 50 | 2 | 4 | 0.9 | 30 | > 50
15 | Brc1ccc2c(c1)C(c1ccccn1)=NCc1nncn1-2 | > 50 | > 50 | 0.04 | > 50 | 42 | 0.3 | 0.2 | 0.4 | > 50 | > 50
16 | Clc1ccc2c(c1)C(c1ccccc1)=NCc1nnc(Cl)n1-2 | > 50 | > 50 | 3 | > 50 | > 50 | 3.1 | > 50 | 4 | > 50 | > 50

Row | Structure (SMILES) | ED50 (Mus musculus [1]) [mg/kg] | ED50 (Mus musculus [2]) [mg/kg] | ED50 (Mus musculus [3]) [mg/kg] | ED50 (Mus musculus [4]) [mg/kg] | ED50 (Mus musculus [5]) [mg/kg] | ED50 (Mus musculus [6]) [mg/kg] | ED50 (Mus musculus [7]) [mg/kg] | ED50 (Mus musculus [8]) [mg/kg] | ED50 (Mus musculus [9]) [mg/kg] | ED50 (Mus musculus [10]) [mg/kg]
17 | CN1CCN(c2nnc3n2-c2ccc(Cl)cc2C(c2ccccc2)=NC3)CC1 | 7.4 | > 50 | 0.7 | 17.7 | > 50 | 1.6 | > 50 | 10.5 | > 50 | > 50
18 | CCN1CCN(c2nnc3n2-c2ccc(Cl)cc2C(c2ccccc2)=NC3)CC1 | 0.2 | > 50 | 0.6 | 29.7 | > 50 | 0.9 | 25 | 1.9 | 42 | > 50
19 | OCCN1CCN(c2nnc3n2-c2ccccc2C(c2ccccc2Cl)=NC3)CC1 | 40 | > 50 | 3 | > 50 | 30 | 3 | 0.9 | 6 | 2 | > 50
20 | CCN1CCN(c2nnc3n2-c2ccccc2C(c2ccccc2Cl)=NC3)CC1 | 40 | > 50 | > 50 | > 50 | 30 | 2 | 4 | 7 | 2 | > 50
21 | CN1CCN(c2nnc3n2-c2ccc(Cl)cc2C(c2ccccc2Cl)=NC3)CC1 | 4.4 | > 50 | 0.035 | > 50 | 35.4 | 0.03 | 0.011 | 0.06 | 3.1 | > 50
22 | Clc1ccccc1C1=NCc2nnc(N3CCOCC3)n2-c2ccccc21 | > 50 | > 50 | 0.8 | > 50 | > 50 | 1.6 | 0.015 | 10.5 | > 50 | > 50
23 | Clc1ccc2c(c1)C(c1ccccc1Cl)=NCc1nnc(N3CCOCC3)n1-2 | > 50 | > 50 | 0.04 | > 50 | > 50 | 0.06 | 0.06 | 0.05 | 6 | > 50
24 | CN(C)CCOc1nnc2n1-c1ccc(Cl)cc1C(c1ccccc1)=NC2 | 25 | > 50 | 0.2 | > 50 | > 50 | 2.2 | 0.8 | 1.1 | > 50 | > 50
25 | CN(C)CCSc1nnc2n1-c1ccc(Cl)cc1C(c1ccccc1)=NC2 | > 50 | > 50 | 1.6 | > 50 | > 50 | 3.1 | > 50 | 7.4 | > 50 | > 50
26 | OCc1nnc2n1-c1ccc(Cl)cc1C(c1ccccc1Cl)=NC2 | > 50 | > 50 | 0.01 | > 50 | > 50 | 0.045 | 0.06 | 0.02 | 7 | > 50
27 | CCOCc1nnc2n1-c1ccc(Cl)cc1C(c1ccccc1)=NC2 | > 50 | > 50 | 0.9 | > 50 | > 50 | 1.4 | 10 | 3 | 40 | > 50
28 | Cc1nnc2n1-c1ccc(Br)cc1C(c1ccccn1)=NC2 | > 50 | – | 0.035 | > 50 | > 50 | 0.12 | – | 0.24 | – | –
29 | Cc1nnc2n1-c1ccc(Br)cc1C(c1ccccc1)=NC2 | > 50 | 20 | 0.8 | > 50 | > 50 | 0.6 | 2 | 0.5 | 20 | > 50
30 | CN(C)CCCN1c2ccccc2Sc2ccc(Cl)cc21 [CHLORPROMAZINE] | 0.9 | 1 | 0.5 | 1 | – | > 50 | > 50 | 50 | 1 | 1
31 | CN(C)CCCN1c2ccccc2CCc2ccccc21.Cl [IMIPRAMINE HYDROCHLORIDE] | 1 | – | 18 | 1 | 4 | – | – | 21 | > 50 | > 50
32 | Cc1nnc2n1-c1ccc(Cl)cc1C(c1ccccc1Cl)=NC2 [TRIAZOLAM] | > 50 | – | – | > 50 | > 50 | 0.07 | 0.07 | – | – | –
